Consider 26 compounds from patent publication US8653100B2 (AbbVie Inc., priority 2008, dated 2014).

Structures are written as SMILES. pKi: −log10 of the molar value. Counter-ions that a name gives are not always drawn.

Sequence of human GlyT1c transporter (P48067 whole entry): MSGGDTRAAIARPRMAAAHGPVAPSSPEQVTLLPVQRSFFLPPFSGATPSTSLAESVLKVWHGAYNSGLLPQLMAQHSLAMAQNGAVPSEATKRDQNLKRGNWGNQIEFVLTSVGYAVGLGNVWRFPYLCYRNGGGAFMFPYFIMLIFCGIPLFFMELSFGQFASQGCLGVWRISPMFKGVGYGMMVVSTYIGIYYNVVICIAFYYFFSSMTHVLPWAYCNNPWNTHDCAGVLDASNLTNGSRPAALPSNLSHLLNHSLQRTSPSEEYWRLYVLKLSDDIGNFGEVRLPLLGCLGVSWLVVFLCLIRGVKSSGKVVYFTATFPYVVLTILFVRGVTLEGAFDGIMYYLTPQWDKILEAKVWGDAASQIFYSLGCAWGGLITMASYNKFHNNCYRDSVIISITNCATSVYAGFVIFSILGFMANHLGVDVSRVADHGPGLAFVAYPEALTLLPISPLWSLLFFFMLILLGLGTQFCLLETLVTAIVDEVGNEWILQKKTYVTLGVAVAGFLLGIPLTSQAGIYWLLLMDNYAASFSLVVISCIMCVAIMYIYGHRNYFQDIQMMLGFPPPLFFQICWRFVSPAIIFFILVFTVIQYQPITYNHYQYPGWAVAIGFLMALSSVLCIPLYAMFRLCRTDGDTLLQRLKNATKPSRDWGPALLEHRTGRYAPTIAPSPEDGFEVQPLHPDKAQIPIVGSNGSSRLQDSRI

In the test the target is human GlyT1c transporter (Homo sapiens (Human), UniProt P48067). Kind of test: Radioligand binding assay using recombinant CHO cell membranes expressing human GlyT1. The settings on record: examples 88-204, radioligand not specified by footnote, read-out: radioligand binding Kiapp. How it is done: 2. Radioligand binding assays using recombinant CHO cell membranes expressing human GlyT1:
Radioligand binding to human GlyT1c transporter-expressing membranes was carried out as described in Mezler et al., Molecular Pharmacology 74:1705-1715, 2008.
More specifically, [^3H]-(R)-NPTS radioligand binding to human GlyT1c transporter-expressing membranes was measured in duplicate in a total volume of 200 μl in 96-well plates. To 100 μl of membrane suspension (yielding a final membrane protein concentration of 50 μg/ml) in assay buffer (120 mM NaCl, 2 mM KCl, 10 mM Hepes, 1 mM MgCl2, 1 mM CaCl2, pH 7.5) […] of [^3H]-(R)-NPTS (0.5 nM final) were added in assay buffer. For competition experiments 10 μl of buffer or unlabeled compound solution obtained from dilution series of test compounds in DMSO followed. An intermediate 1:10 dilution in assay buffer yielded a final DMSO concentration of 1%. Non-specific binding was determined in the presence of 10 μM Org24598 (or its racemate Org24461) for [^3H]-(R)-NPTS. After incubation at room temperature for 1 h, the incubation mixture was harvested (Tomtec Mach III U Harvester) through 96-well GF/B filter plates (PerkinElmer), presoaked for 1 h with 40 μl per well of 0.1% polyethylene-imine (PEI). After washing twice with ice-cold 50 mM Tris-HCl pH 7.4 buffer, drying and addition of 35 μl scintillator (BetaplateScint, PerkinElmer) per well followed. The radioactivity was determined by liquid scintillation spectrometry in a MicroBeta (PerkinElmer) plate counter.
Data analysis: For binding of [^3H]-(R)-NPTS to cell membranes, the calculation of Kd and Bmax values from the saturation binding assays and the IC50 values from the displacement binding was performed by iterative non-linear regression analysis adapted from the ‘Ligand’ program (Munson and Rodbard, 1980). Radioligand displacement curves in absence or in presence of increasing concentrations of tested compounds were fitted using a one-site fit and the apparent Ki values were calculated from the IC50 values using the Cheng-Prusoff equation (Cheng and Prusoff 1973).
As for `CCCS(=O)(=O)NCC(=O)Nc1ccc2c(c1)C(C1(c3ccc(Cl)cc3)CCC1)NCC2` (centres unmarked) [Example 99, N-{1-[1-(4-Chlorophenyl)cyclobutyl]-1,2,3,4-tetrahydroisoquinolin-7-yl}-N˜2˜-(propylsulfonyl)glycinamide hydrochloride], the pKi was at least 7.00.

As to `Cn1cc(S(=O)(=O)NCc2ccc3c(c2)C(C(C)(C)c2ccc(Cl)cc2)NCC3)cn1` (centres unmarked) [Example 100, N-({1-[2-(4-Chlorophenyl)propan-2-yl]-1,2,3,4-tetrahydroisoquinolin-7-yl}methyl)-1-methyl-1H-pyrazole-4-sulfonamide hydrochloride], the pKi is at least 7.00.

With `Cn1cnc(S(=O)(=O)NCc2ccc3c(c2)C(C(C)(C)c2ccc(Cl)cc2)NCC3)c1` (centres unmarked) [Example 102, N-({1-[2-(4-Chlorophenyl)propan-2-yl]-1,2,3,4-tetrahydroisoquinolin-7-yl}methyl)-1-methyl-1H-imidazole-4-sulfonamide hydrochloride], the pKi was at least 7.00.

In the case of `O=S(=O)(CCCF)NCCOc1ccc2c(c1)C(C1(c3ccccn3)CCC1)NCC2` (centres unmarked) [Example 104, 3-Fluoro-N-[2-({1-[1-(pyridin-2-yl)cyclobutyl]-1,2,3,4-tetrahydroisoquinolin-7-yl}oxy)ethyl]propane-1-sulfonamide hydrochloride], the pKi is at least 7.00.

For the compound `CCCS(=O)(=O)NCCOc1ccc2c(c1)C(C1(c3cccc(Cl)n3)CCC1)NCC2` (centres unmarked) [Example 105, N-[2-({1-[1-(6-Chloropyridin-2-yl)cyclobutyl]-1,2,3,4-tetrahydroisoquinolin-7-yl}oxy)ethyl]propane-1-sulfonamide dihydrochloride], the pKi was at least 7.00.

For the compound `CC(C)(c1ccc(Cl)cc1)C1NCCc2ccc(C#N)cc21` (centres unmarked) [Example 107, 1-[2-(4-Chlorophenyl)propan-2-yl]-1,2,3,4-tetrahydroisoquinoline-7-carbonitrile hydrochloride], the pKi was at least 6.00.

For `O=S(=O)(CCCOc1ccc2c(c1)C(C1(c3ccc(Cl)cc3)CCC1)NCC2)Nc1ccccn1` (centres unmarked) [Example 109, 3-({1-[1-(4-Chlorophenyl)cyclobutyl]-1,2,3,4-tetrahydroisoquinolin-7-yl}oxy)-N-(pyridin-2-yl)propane-1-sulfonamide dihydrochloride], the pKi is at least 6.00.

For the compound `O=S(=O)(NCCOc1ccc2c(c1)C(C1(c3ccc(Cl)cc3)CCC1)NCC2)c1ccc(CCF)cc1` (centres unmarked) [Example 110, N-[2-({1-[1-(4-Chlorophenyl)cyclobutyl]-1,2,3,4-tetrahydroisoquinolin-7-yl}oxy)ethyl]-4-(2-fluoroethyl)benzenesulfonamide hydrochloride], the pKi is at least 6.00.

`Cn1cnc(S(=O)(=O)NCC(=O)Nc2ccc3c(c2)C(C2(c4ccc(Cl)cc4)CCC2)NCC3)c1` (centres unmarked) [Example 111, N-{1-[1-(4-Chlorophenyl)cyclobutyl]-1,2,3,4-tetrahydroisoquinolin-7-yl}-N˜2˜-[(1-methyl-1H-imidazol-4-yl)sulfonyl]glycinamide dihydrochloride]: the pKi was at least 6.00.

Take `Cn1cc(S(=O)(=O)NCC(=O)Nc2ccc3c(c2)C(C2(c4ccc(Cl)cc4)CCC2)NCC3)cn1` (centres unmarked) [Example 113, N-{1-[1-(4-Chlorophenyl)cyclobutyl]-1,2,3,4-tetrahydroisoquinolin-7-yl}-N˜2˜-[(1-methyl-1H-pyrazol-4-yl)sulfonyl]glycinamide hydrochloride]: the pKi is at least 6.00.

With `O=S(=O)(NCCOc1ccc2c(c1)C(C1(c3ccc(Cl)cc3)CCC1)NCC2)c1ccc(CCCF)cc1` (centres unmarked) [Example 114, N-[2-({1-[1-(4-Chlorophenyl)cyclobutyl]-1,2,3,4-tetrahydroisoquinolin-7-yl}oxy)ethyl]-4-(3-fluoropropyl)benzenesulfonamide hydrochloride], the pKi is at least 6.00.

For `O=S(=O)(Nc1ccc(Oc2ccc3c(c2)C(C2(c4ccc(Cl)cc4)CCC2)NCC3)cc1)c1cccs1` (centres unmarked) [Example 115, N-[4-({1-[1-(4-Chlorophenyl)cyclobutyl]-1,2,3,4-tetrahydroisoquinolin-7-yl}oxy)phenyl]thiophene-2-sulfonamide hydrochloride], the pKi is at least 6.00.

Consider `CCCS(=O)(=O)Nc1ccc(Oc2ccc3c(c2)C(C2(c4ccc(Cl)cc4)CCC2)NCC3)nc1` (centres unmarked) [Example 119, N-[6-({1-[1-(4-Chlorophenyl)cyclobutyl]-1,2,3,4-tetrahydroisoquinolin-7-yl}oxy)pyridin-3-yl]propane-1-sulfonamide dihydrochloride], for which the pKi was at least 5.00.

With `CCCS(=O)(=O)Oc1ccc2c(c1)C(C1(c3cccc(F)c3)CCC1)NCC2` (centres unmarked) [Example 120, 1-[1-(3-Fluorophenyl)cyclobutyl]-1,2,3,4-tetrahydroisoquinolin-7-yl propane-1-sulfonate hydrochloride], the pKi is at least 5.00.

Regarding `O=S(=O)(Nc1ccccc1Oc1ccc2c(c1)C(C1(c3ccc(Cl)cc3)CCC1)NCC2)c1cccnc1` (centres unmarked) [Example 122, N-[2-({1-[1-(4-Chlorophenyl)cyclobutyl]-1,2,3,4-tetrahydroisoquinolin-7-yl}oxy)phenyl]pyridine-3-sulfonamide dihydrochloride], the pKi is at least 5.00.

In the case of `O=S(=O)(Nc1ccc(Oc2ccc3c(c2)C(C2(c4ccc(Cl)cc4)CCC2)NCC3)nc1)c1cccs1` (centres unmarked) [Example 124, N-[6-({1-[1-(4-Chlorophenyl)cyclobutyl]-1,2,3,4-tetrahydroisoquinolin-7-yl}oxy)pyridin-3-yl]thiophene-2-sulfonamide dihydrochloride], the pKi is at least 5.00.

Take `CCCS(=O)(=O)NCc1ccc2c(c1)C(C1(c3ccccn3)CCC1)NCC2` (centres unmarked) [Example 125, N-({1-[1-(Pyridin-2-yl)cyclobutyl]-1,2,3,4-tetrahydroisoquinolin-7-yl}methyl)propane-1-sulfonamide trifluoroacetate]: the pKi was at least 5.00.

For the compound `O=S(=O)(Nc1cccnc1Oc1ccc2c(c1)C(C1(c3ccc(Cl)cc3)CCC1)NCC2)c1cccs1` (centres unmarked) [Example 127, N-[2-({1-[1-(4-Chlorophenyl)cyclobutyl]-1,2,3,4-tetrahydroisoquinolin-7-yl}oxy)pyridin-3-yl]thiophene-2-sulfonamide dihydrochloride], the pKi is at least 5.00.

`CCCS(=O)(=O)Nc1cccnc1Oc1ccc2c(c1)C(C1(c3ccc(Cl)cc3)CCC1)NCC2` (centres unmarked) [Example 128, N-[2-({1-[1-(4-Chlorophenyl)cyclobutyl]-1,2,3,4-tetrahydroisoquinolin-7-yl}oxy)pyridin-3-yl]propane-1-sulfonamide dihydrochloride]: the pKi was at least 5.00.

For `N#Cc1ccc2c(c1)C(C1(c3ccccn3)CCC1)NCC2` (centres unmarked) [Example 129, 1-[1-(Pyridin-2-yl)cyclobutyl]-1,2,3,4-tetrahydroisoquinoline-7-carbonitrile hydrochloride], the pKi was at least 5.00.

`O=S(=O)(Nc1ccc(Oc2ccc3c(c2)C(C2(c4ccc(Cl)cc4)CCC2)NCC3)nc1)c1cccnc1` (centres unmarked) [Example 131, N-[6-({1-[1-(4-Chlorophenyl)cyclobutyl]-1,2,3,4-tetrahydroisoquinolin-7-yl}oxy)pyridin-3-yl]pyridine-3-sulfonamide trihydrochloride]: the pKi was at least 5.00.

As for `O=S(=O)(CC1CC1)NCc1ccc2c(c1)C(C1(c3ccccn3)CCC1)NCC2` (centres unmarked) [Example 134, 1-Cyclopropyl-N-({1-[1-(pyridin-2-yl)cyclobutyl]-1,2,3,4-tetrahydroisoquinolin-7-yl}methyl)methanesulfonamide trifluoroacetate], the pKi was at least 5.00.

Regarding `O=S(=O)(Nc1cccnc1Oc1ccc2c(c1)C(C1(c3ccc(Cl)cc3)CCC1)NCC2)c1cccnc1` (centres unmarked) [Example 136, N-[2-({1-[1-(4-Chlorophenyl)cyclobutyl]-1,2,3,4-tetrahydroisoquinolin-7-yl}oxy)pyridin-3-yl]pyridine-3-sulfonamide trihydrochloride], the pKi was at least 5.00.

In the case of `NCCCNS(=O)(=O)CCCOc1ccc2c(c1)C(C1(c3ccc(Cl)cc3)CCC1)NCC2` (centres unmarked) [Example 137, N-(3-Aminopropyl)-3-({1-[1-(4-chlorophenyl)cyclobutyl]-1,2,3,4-tetrahydroisoquinolin-7-yl}oxy)propane-1-sulfonamide dihydrochloride], the pKi is at least 5.00.

Regarding `CCCS(=O)(=O)NCCOc1ccc2c(c1)C(C(C)(C)c1ccc(Cl)cc1)NCC2` (centres unmarked) [Example 139, N-[2-({1-[2-(4-Chlorophenyl)propan-2-yl]-1,2,3,4-tetrahydroisoquinolin-7-yl}oxy)ethyl]propane-1-sulfonamide], the pKi was at least 7.00.

For `O=S(=O)(CCCF)NCCOc1ccc2c(c1)C(C1(c3ccc(Cl)cc3)CCC1)NCC2` (centres unmarked) [Example 140, N-[2-({1-[1-(4-Chlorophenyl)cyclobutyl]-1,2,3,4-tetrahydroisoquinolin-7-yl}oxy)ethyl]-3-fluoropropane-1-sulfonamide hydrochloride], the pKi is at least 7.00.
